Data from the supplement of paper PMC10307832.

Tests used:
Assay in all cases: relative viability (nuclei count vs DMSO), 5 days (fraction); higher = more cells survive
[1] = compound: CCN(CC)CCNC(=O)c1c(C)[nH]c(/C=C2\C(=O)Nc3ccc(F)cc32)c1C [Sunitinib]
Method in brief: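 Viability was read as treated-well nuclei divided by vehicle-well nuclei, using the median across plates. Lung cancer cell lines in 1536-well plates were kept overnight at 37 °C, pinned with five √10-spaced library-drug doses, and after 5 days were Hoechst-stained, imaged at 4× and counted in MetaXpress. Plates passed only with control CV below 25% and at least one doubling.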

[2] = compound: CCN(CC)CCNC(=O)c1c(C)[nH]c(/C=C2\C(=O)Nc3ccc(F)cc32)c1C [Sunitinib] + CC(C)C[C@H](NC(=O)[C@H](Cc1ccccc1)NC(=O)c1cnccn1)B(O)O [Bortezomib] (partner 0.002 µM)
Method in brief: (§1)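 Lung cancer cell lines were seeded in 1536-well plates and dosed by pin tool the next day, with either a single drug or a fixed anchor-drug dose combined with five library-drug doses (not always all listed) spaced in √10 steps. Five days later, one step fixed the cells and stained their nuclei (final 0.05% Triton X-100, 1% formaldehyde, 1 ug/ml Hoechst), and nuclei were counted on 4× images. Relative viability is the nuclei count in treated wells divided by the count in vehicle wells, and each value is the median of duplicate plates.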

[3] = compound: CCN(CC)CCNC(=O)c1c(C)[nH]c(/C=C2\C(=O)Nc3ccc(F)cc32)c1C [Sunitinib] + O=C(c1cc(Cc2n[nH]c(=O)c3ccccc23)ccc1F)N1CCN(C(=O)C2CC2)CC1 [Olaparib] (partner 8 µM)
Method in brief: as §1

[4] = compound: CCN(CC)CCNC(=O)c1c(C)[nH]c(/C=C2\C(=O)Nc3ccc(F)cc32)c1C [Sunitinib] + CS(=O)(=O)CCNCc1ccc(-c2ccc3ncnc(Nc4ccc(OCc5cccc(F)c5)c(Cl)c4)c3c2)o1 [Lapatinib] (partner 2 µM)
Method in brief: as §1

[5] = compound: CCN(CC)CCNC(=O)c1c(C)[nH]c(/C=C2\C(=O)Nc3ccc(F)cc32)c1C [Sunitinib] + COc1cc2c(Oc3ccc(NC(=O)C4(C(=O)Nc5ccc(F)cc5)CC4)cc3F)ccnc2cc1OCCCN1CCOCC1 [Foretinib] (partner 0.25 µM)
Method in brief: as §1

[6] = compound: CCN(CC)CCNC(=O)c1c(C)[nH]c(/C=C2\C(=O)Nc3ccc(F)cc32)c1C [Sunitinib] + C[C@@H](Oc1cc(-c2cnn(C3CCNCC3)c2)cnc1N)c1c(Cl)ccc(F)c1Cl [Crizotinib] (partner 1 µM)
Method in brief: as §1

[7] = compound: CCN(CC)CCNC(=O)c1c(C)[nH]c(/C=C2\C(=O)Nc3ccc(F)cc32)c1C [Sunitinib] + CC1(C)CCC(c2ccc(Cl)cc2)=C(CN2CCN(c3ccc(C(=O)NS(=O)(=O)c4ccc(N[C@H](CCN5CCOCC5)CSc5ccccc5)c(S(=O)(=O)C(F)(F)F)c4)cc3)CC2)C1 [Navitoclax] (partner 0.5 µM)
Method in brief: as §1

[8] = compound: CCN(CC)CCNC(=O)c1c(C)[nH]c(/C=C2\C(=O)Nc3ccc(F)cc32)c1C [Sunitinib] + C[C@]1(O)C[C@@H](c2nc(-c3ccc4ccc(-c5ccccc5)nc4c3)c3c(N)nccn32)C1 [Linsitinib] (partner 1 µM)
Method in brief: as §1

[9] = compound: CCN(CC)CCNC(=O)c1c(C)[nH]c(/C=C2\C(=O)Nc3ccc(F)cc32)c1C [Sunitinib] + Cc1nc(NC(=O)N2CCC[C@H]2C(N)=O)sc1-c1ccnc(C(C)(C)C(F)(F)F)c1 [Alpelisib] (partner 2 µM)
Method in brief: as §1

[10] = compound: CCN(CC)CCNC(=O)c1c(C)[nH]c(/C=C2\C(=O)Nc3ccc(F)cc32)c1C [Sunitinib] + CS(=O)(=O)N1CCN(Cc2cc3nc(-c4cccc5[nH]ncc45)nc(N4CCOCC4)c3s2)CC1 [Pictilisib] (partner 1 µM)
Method in brief: as §1

EBC-1 was tested, and the relative viability ([1]; 0.02 µM) was 0.965, the relative viability ([1]; 0.2 µM) was 1.12 and the relative viability ([1]; 0.6325 µM) was 1.09. It also gave a relative viability ([1]; 2 µM) of 1.01, a relative viability ([2]; first compound 0.02 µM) of 0.475 and a relative viability ([2]; first compound 0.06325 µM) of 0.573. The relative viability ([2]; first compound 0.2 µM) was 0.65, the relative viability ([2]; first compound 0.6325 µM) was 0.532 and the relative viability ([2]; first compound 2 µM) was 0.534. It also gave a relative viability ([3]; first compound 0.02 µM) of 0.758, a relative viability ([3]; first compound 0.06325 µM) of 0.689 and a relative viability ([3]; first compound 0.2 µM) of 0.727. The relative viability ([3]; first compound 0.6325 µM) was 0.726, the relative viability ([3]; first compound 2 µM) was 0.739 and the relative viability ([4]; first compound 0.02 µM) was 0.227. The relative viability ([4]; first compound 0.06325 µM) was 0.198, the relative viability ([4]; first compound 0.2 µM) was 0.224 and the relative viability ([4]; first compound 0.6325 µM) was 0.215. For the same cell line, the relative viability ([4]; first compound 2 µM) was 0.202, the relative viability ([5]; first compound 0.02 µM) was 0.101 and the relative viability ([5]; first compound 0.06325 µM) was 0.112. For the same cell line, the relative viability ([5]; first compound 0.2 µM) was 0.0979, the relative viability ([5]; first compound 0.6325 µM) was 0.112 and the relative viability ([5]; first compound 2 µM) was 0.119. For the same cell line, the relative viability ([6]; first compound 0.02 µM) was 0.171, the relative viability ([6]; first compound 0.06325 µM) was 0.178 and the relative viability ([6]; first compound 0.2 µM) was 0.216. For the same cell line, the relative viability ([6]; first compound 0.6325 µM) was 0.183, the relative viability ([6]; first compound 2 µM) was 0.19 and the relative viability ([7]; first compound 0.02 µM) was 0.467. The relative viability ([7]; first compound 0.06325 µM) was 0.472, the relative viability ([7]; first compound 0.2 µM) was 0.417 and the relative viability ([7]; first compound 0.6325 µM) was 0.557. The relative viability ([7]; first compound 2 µM) was 0.626, the relative viability ([8]; first compound 0.02 µM) was 0.9 and the relative viability ([8]; first compound 0.06325 µM) was 0.972. For the same cell line, the relative viability ([8]; first compound 0.2 µM) was 1.01, the relative viability ([8]; first compound 0.6325 µM) was 0.993 and the relative viability ([8]; first compound 2 µM) was 0.957. It also gave a relative viability ([9]; first compound 0.02 µM) of 0.857, a relative viability ([9]; first compound 0.06325 µM) of 0.971 and a relative viability ([9]; first compound 0.2 µM) of 0.871. It also gave a relative viability ([9]; first compound 0.6325 µM) of 0.87, a relative viability ([9]; first compound 2 µM) of 1 and a relative viability ([10]; first compound 0.02 µM) of 0.41. It also gave a relative viability ([10]; first compound 0.06325 µM) of 0.377, a relative viability ([10]; first compound 0.2 µM) of 0.463 and a relative viability ([10]; first compound 0.6325 µM) of 0.411. For the same cell line, the relative viability ([10]; first compound 2 µM) was 0.46.
